Each block holds one molecule with its values, some of them ahead of it.
Key:
[1] = target: T1, KLK5 (Homo sapiens, UniProt Q9Y337); experiment: KLK5 inhibition assay (Acetyl-YASR-paranitroanilide, absorbance 405 nm); type: biochemical; details: over 30 minutes; leupeptin at 100 uM
T1 sequence (Q9Y337 23-293): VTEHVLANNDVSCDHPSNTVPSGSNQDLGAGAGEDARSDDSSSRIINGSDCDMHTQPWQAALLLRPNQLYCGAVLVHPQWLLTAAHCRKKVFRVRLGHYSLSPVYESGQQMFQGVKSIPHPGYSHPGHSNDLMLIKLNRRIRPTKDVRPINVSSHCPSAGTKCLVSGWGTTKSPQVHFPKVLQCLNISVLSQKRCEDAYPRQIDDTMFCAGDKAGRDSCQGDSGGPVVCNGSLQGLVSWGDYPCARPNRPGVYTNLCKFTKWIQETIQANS
Procedure: The KLK5 inhibition assay is the foremost method to determine inhibition of KLK5. In the assay, KLK5 is incubated with the substrate Acetyl-YASR-paranitroanilide Uninhibited, KLK5 cleaves the substrate Acetyl-YASR at the arginine position […], releasing para-nitroanilide, a chromophore with absorbance 405 nm, resulting in increased absorption at that wavelength. When inhibited, the substrate Acetyl-YASR-paranitroanilide remains intact, and there is no increase in absorption at 405 nm. As a positive control, we used the absence of any inhibitor and the addition of purified Red Fluorescent Protein (RFP). As negative controls, we used a substrate only addition (no KLK5 is added) as well as a 100 uM addition of purified leupeptin, which is known to inhibit KLK5 at high concentrations.

[2] = target: T2, KLK5 protein (kallikrein 5) (UniProt Q9Y337 67-293, limits assumed); experiment: cell-based or functional assay
T2 sequence (looked up): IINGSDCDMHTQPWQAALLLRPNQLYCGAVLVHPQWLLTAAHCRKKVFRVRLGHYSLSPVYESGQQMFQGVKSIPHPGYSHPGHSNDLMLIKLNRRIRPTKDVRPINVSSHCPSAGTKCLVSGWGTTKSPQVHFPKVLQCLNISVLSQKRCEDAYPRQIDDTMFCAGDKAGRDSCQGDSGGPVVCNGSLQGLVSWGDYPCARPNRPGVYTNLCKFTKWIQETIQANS

change of absorbance at 405 nm [1]: very little increasing absorbance
Molecule: CC(=O)N[C@@H](CC(C)C)C(=O)N[C@@H](CC(C)C)C(=O)N[C@H](C=O)CCCNC(=N)N [leupeptin]

KLK5 inhibition assay (cleavage of Acetyl-YASR-paranitroanilide, absorbance at 405 nm), IC50 [2]: 0.089 µM
B1: LEKTI-D6 protein (lymphoepithelial Kazal-Type-related protease inhibitor, domain 6), secreted by C. glutamicum and purified (other)
chain: MESGKATSYAELCNEYRKLVRNGKLACTRENDPIQGPDGKVHGNTCSMCEVFFQAEEEEKKKKEGESRNKR
